Reference: patent publication US7998989B2, “2-Imino-1,3-thiazoline-based compounds and T-type calcium channel inhibitors containing the same” (Korea Institute of Science and Technology, priority 2007, dated 2011)

Assays:
[1] = target: T1, α1G T-type calcium channel (Homo sapiens, UniProt O43497); assay: Electrophysiological whole cell patch clamp measurement of T-type calcium channel current in HEK293 cells; format: cell-based; details: HEK293 cells expressing α1G; for HEK293cell (% Inhibition) 10 μM: inhibition of peak current; for IC50: read-out: IC50 (a1G)
T1 construct: host or cells: HEK293
Description: In the present invention, in order to examine an efficient inhibitor against the T-type calcium channel, a primary assay for T-type calcium channel inhibiting activity was conducted by a high-efficient assay using FDSS6000, wherein mammal HEK293 cell lines (originated from human kidney carcinoma cells) that specifically express α1G of the T-type calcium channel was used for primary assay. Through the primary assay, compounds that show meaningful inhibition effects were selected. The selected compounds were used in a second assay for T-type calcium channel inhibiting activity using an electrophysiological whole cell patch clamp method, wherein mammal HEK293 cell lines (originated from human kidney carcinoma cells) that specifically express α1G of the T-type calcium channel was used for the second assay. Mibefradil, which had been developed as a T-type calcium channel inhibitor, was used as a reference.
10% Fetal bovine serum (FBS) and 1% penicillin/streptomycin (v/v) were added to Dulbecco's modified Eagle's medium (DMEM), to be used as a media solution. The cells were cultured in an incubator under a wet condition of 95% air/5% CO2 and a temperature of 36.5° C. The media solution was refreshed every 3 or 4 days, and the cells were sub-cultured every week. Only the cells that expressed α1G T-type calcium channel were cultured using a G-418 (0.5 mg/ml) solution. The recording of the cells used in the T-type calcium channel activity analysis was conducted at 2-7 days after the cells were culturing on a cover slip coated with poly-L-lysine (0.5 mg/ml) when conducting every sub-culture. For analysis at a single cell level, the T-type calcium channel current was measured by an electrophysiological whole cell patch clamp method using EPC-9 amplifier (HEKA, German).
As solutions for analyzing T-type calcium channel activity, a solution including NaCl 140 mM, CaCl2 2 mM, and HEPES10 mM (pH 7.4, Sigma; 4-(2-hydroxyethyl)piperazine-1-ethanesulfonic acid) was used as an extracellular solution, and a solution including KCl 130 mM, HEPES 10 mM (Sigma), EGTA 11 mM (ethylene glycol-bis(2-aminoethylether)-N,N,N′,N′-tetraacetic acid, Sigma), and MgATP 5 mM (pH 7.4, Sigma) was used as an intracellular solution. The protocol for T-type calcium channel activity that is activated at low voltage is as follows. A micro-glass electrode with resistance of 3-4 MΩ wherein the above-prepared intracellular solution was filled was pricked into a single cell, to make a whole-cell recording mode. Thereafter, the cell membrane potential was fixed to −100 mV, and then the inward current due to the T-type calcium channel activity when hypopolarizing to −30 mV (50 ms duration) was measured every 10 seconds.
Each compound to be tested was dissolved in 100% dimethylsulfoxide (DMSO) to make a 10 mM stock solution. The effect of the compound on the T-type calcium channel current compound was initially examined in the stock solution with the 1000-times diluted concentration of 10 μM (containing 0.1% DMSO) and then examined in the solution with the concentration for IC50 measurement (mostly 0.1 to 100 μM), to obtain an IC50 value. More specifically, the cells were treated in each compound together with the extracellular solution for 30 to 60 seconds, and the inhibition level of peak current induced by the compound was calculated as a percentage, to obtain the % inhibition value as shown in Table 4.

[2] = target: T1, α1G T-type calcium channel; assay: Assay for % inhibiting activity against T-type calcium channel using FDSS6000 (fluo-3 calcium imaging, KCl activation); format: cell-based; details: 10 μM; HEK293 cells stably expressing α1G T-type calcium channel and Kir2.1; compounds of the examples
In short: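 HEK293 cells stably expressing α1G and Kir2.1 loaded with 5 μM fluo-3/AM, then in HEPES buffer (pH 7.4) with 10 mM CaCl2. Compound applied 75 s before 75 mM KCl; intracellular Ca2+ read as […] area, % inhibition relative to untreated control.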

T1 sequence (O43497 whole entry): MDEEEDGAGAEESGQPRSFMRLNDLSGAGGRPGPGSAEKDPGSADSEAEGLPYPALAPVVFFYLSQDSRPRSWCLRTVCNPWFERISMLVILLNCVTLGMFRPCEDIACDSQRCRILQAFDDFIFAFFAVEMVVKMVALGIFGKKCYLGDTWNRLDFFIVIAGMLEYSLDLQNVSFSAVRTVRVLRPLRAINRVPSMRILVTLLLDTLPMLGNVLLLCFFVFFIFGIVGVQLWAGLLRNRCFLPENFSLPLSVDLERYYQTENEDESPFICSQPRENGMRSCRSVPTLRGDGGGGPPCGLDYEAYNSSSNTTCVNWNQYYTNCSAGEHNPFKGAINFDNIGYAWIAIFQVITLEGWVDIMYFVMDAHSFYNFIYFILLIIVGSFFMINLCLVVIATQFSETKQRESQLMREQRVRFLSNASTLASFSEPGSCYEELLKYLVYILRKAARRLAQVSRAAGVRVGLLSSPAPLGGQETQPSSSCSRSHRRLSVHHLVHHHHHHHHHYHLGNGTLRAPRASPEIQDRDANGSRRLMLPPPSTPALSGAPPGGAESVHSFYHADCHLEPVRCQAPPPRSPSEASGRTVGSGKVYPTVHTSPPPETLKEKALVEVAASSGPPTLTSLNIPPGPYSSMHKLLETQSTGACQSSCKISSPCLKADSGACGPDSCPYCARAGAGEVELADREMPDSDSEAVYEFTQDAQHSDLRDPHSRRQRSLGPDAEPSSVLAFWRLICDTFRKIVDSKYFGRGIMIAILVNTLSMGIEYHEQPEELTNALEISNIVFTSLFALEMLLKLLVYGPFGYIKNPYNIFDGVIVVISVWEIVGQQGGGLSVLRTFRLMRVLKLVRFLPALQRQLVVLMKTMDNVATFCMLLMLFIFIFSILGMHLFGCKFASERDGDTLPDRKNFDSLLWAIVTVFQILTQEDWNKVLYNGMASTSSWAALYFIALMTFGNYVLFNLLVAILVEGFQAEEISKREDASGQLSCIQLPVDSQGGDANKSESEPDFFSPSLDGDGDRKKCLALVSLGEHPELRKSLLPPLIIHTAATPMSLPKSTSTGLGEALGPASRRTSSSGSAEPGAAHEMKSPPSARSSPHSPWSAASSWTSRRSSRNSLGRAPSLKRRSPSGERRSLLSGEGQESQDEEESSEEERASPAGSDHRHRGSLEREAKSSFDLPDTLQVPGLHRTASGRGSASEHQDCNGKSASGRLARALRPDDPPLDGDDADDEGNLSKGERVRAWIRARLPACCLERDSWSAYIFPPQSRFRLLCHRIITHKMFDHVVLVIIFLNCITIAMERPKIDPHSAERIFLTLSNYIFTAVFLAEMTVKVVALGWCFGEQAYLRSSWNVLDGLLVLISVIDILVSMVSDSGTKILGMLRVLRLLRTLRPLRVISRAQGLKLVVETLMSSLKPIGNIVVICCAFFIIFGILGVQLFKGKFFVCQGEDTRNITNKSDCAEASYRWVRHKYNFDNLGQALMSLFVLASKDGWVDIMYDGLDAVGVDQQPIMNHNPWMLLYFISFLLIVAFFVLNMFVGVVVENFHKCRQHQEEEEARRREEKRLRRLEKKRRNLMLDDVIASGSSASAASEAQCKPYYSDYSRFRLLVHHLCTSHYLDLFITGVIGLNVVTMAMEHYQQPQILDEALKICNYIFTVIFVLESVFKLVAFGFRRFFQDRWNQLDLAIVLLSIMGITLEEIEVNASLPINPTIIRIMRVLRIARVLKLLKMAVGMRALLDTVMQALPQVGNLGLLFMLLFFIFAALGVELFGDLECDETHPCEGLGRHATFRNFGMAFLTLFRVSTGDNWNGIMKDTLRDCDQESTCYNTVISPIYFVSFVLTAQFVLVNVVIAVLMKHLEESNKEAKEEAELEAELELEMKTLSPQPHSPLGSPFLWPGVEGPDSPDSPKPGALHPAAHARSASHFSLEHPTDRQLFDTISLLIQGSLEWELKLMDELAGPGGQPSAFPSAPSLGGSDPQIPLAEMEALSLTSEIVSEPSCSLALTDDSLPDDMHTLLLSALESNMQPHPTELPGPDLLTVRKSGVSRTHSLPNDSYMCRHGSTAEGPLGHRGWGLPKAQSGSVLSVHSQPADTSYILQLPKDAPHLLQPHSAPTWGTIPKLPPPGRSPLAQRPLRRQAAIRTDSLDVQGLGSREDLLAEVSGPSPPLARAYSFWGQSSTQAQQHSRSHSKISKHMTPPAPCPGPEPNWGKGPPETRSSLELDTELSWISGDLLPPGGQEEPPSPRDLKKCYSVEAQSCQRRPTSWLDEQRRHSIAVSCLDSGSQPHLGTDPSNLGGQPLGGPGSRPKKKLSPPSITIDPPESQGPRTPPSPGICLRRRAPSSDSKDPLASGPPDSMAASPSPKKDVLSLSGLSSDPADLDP

(2-cyclohexylimino-3-methyl-1,3-thiazolidine-4-yl)-N-(3-chloro-4-methylphenyl)-acetamide hydrochloride [KHG24072]
HEK293cell (% Inhibition) 10 μM [1]: 91.2 ± 1.6%
IC50 [1]: 990 ± 30 nM
FDSS (% inhibition)/10uM [2]: 63.5%

(2-cyclohexylimino-3-methyl-1,3-thiazolidine-4-yl)-N-(3-trifluoromethylphenyl)-acetamide hydrochloride [KHG24084]
HEK293cell (% Inhibition) 10 μM [1]: 82.2 ± 1.4%
IC50 [1]: 2790 ± 110 nM
FDSS (% inhibition)/10uM [2]: 58.61%

(2-cyclohexylimino-3-methyl-1,3-thiazolidine-4-yl)-N-(4-bromophenyl)-acetamide hydrochloride [KHG23354]
HEK293cell (% Inhibition) 10 μM [1]: 83.0 ± 1.4%
IC50 [1]: 2470 ± 180 nM
FDSS (% inhibition)/10uM [2]: 54.26%

(2-cyclohexylimino-3-methyl-1,3-thiazolidine-4-yl)-N-(4-chloro-2-fluorophenyl)-acetamide hydrochloride [KHG23361]
HEK293cell (% Inhibition) 10 μM [1]: 71.4 ± 3.4%
IC50 [1]: 4090 ± 700 nM
FDSS (% inhibition)/10uM [2]: 62.4%

(2-cyclohexylimino-3-methyl-1,3-thiazolidine-4-yl)-N-(4-chlorobenzyl)-acetamide hydrochloride [KHG24113]
HEK293cell (% Inhibition) 10 μM [1]: 64.8 ± 1.4%
IC50 [1]: 5400 ± 410 nM
FDSS (% inhibition)/10uM [2]: 54.13%

(2-cyclohexylimino-3-methyl-1,3-thiazolidine-4-yl)-N-(4-chlorophenyl)-acetamide hydrochloride [KHG23362]
HEK293cell (% Inhibition) 10 μM [1]: 89.3 ± 0.9%
IC50 [1]: 530 ± 30 nM
FDSS (% inhibition)/10uM [2]: 66.17%

(2-cyclohexylimino-3-methyl-1,3-thiazolidine-4-yl)-N-(4-fluorophenyl)-acetamide hydrochloride [KHG23210]
HEK293cell (% Inhibition) 10 μM [1]: 59.6 ± 1.5%
IC50 [1]: 6500 ± 500 nM
FDSS (% inhibition)/10uM [2]: 46.69%

(2-cyclohexylimino-3-methyl-1,3-thiazolidine-4-yl)-N-(4-isopropylphenyl)-acetamide hydrochloride [KHG23364]
HEK293cell (% Inhibition) 10 μM [1]: 97.0 ± 0.7%
IC50 [1]: 870 ± 180 nM
FDSS (% inhibition)/10uM [2]: 53%

(2-cyclohexylimino-3-methyl-1,3-thiazolidine-4-yl)-N-(4-methylphenyl)-acetamide hydrochloride [KHG24077]
HEK293cell (% Inhibition) 10 μM [1]: 57.0 ± 1.5%
IC50 [1]: 7220 ± 360 nM
FDSS (% inhibition)/10uM [2]: 46.41%

(2-cyclohexylimino-3-methyl-1,3-thiazolidine-4-yl)-N-(4-n-butylphenyl)-acetamide hydrochloride [KHG23365]
HEK293cell (% Inhibition) 10 μM [1]: 97.6 ± 0.5%
IC50 [1]: 600 ± 60 nM
FDSS (% inhibition)/10uM [2]: 60.16%

(2-cyclohexylimino-3-methyl-1,3-thiazolidine-4-yl)-N-(4-phenoxyphenyl)-acetamide hydrochloride [KHG23355]
HEK293cell (% Inhibition) 10 μM [1]: 88.1 ± 2.0%
IC50 [1]: 1510 ± 170 nM
FDSS (% inhibition)/10uM [2]: 58.95%

(2-cyclohexylimino-3-methyl-1,3-thiazolidine-4-yl)-N-(4-trifluoromethylphenyl)-acetamide hydrochloride [KHG24074]
HEK293cell (% Inhibition) 10 μM [1]: 94.7 ± 0.5%
IC50 [1]: 660 ± 60 nM
FDSS (% inhibition)/10uM [2]: 65.2%

[2-(1-adamantyl)imino-3-methyl-1,3-thiazolidine-4-yl]-N-(3,5-ditrifluoromethylphenyl)-acetamide hydrochloride [KHG24241]
HEK293cell (% Inhibition) 10 μM [1]: 92.2 ± 0.5%
IC50 [1]: 170 ± 20 nM
FDSS (% inhibition)/10uM [2]: 70.68%

[2-(1-adamantyl)imino-3-methyl-1,3-thiazolidine-4-yl]-N-(4-bromophenyl)-acetamide hydrochloride [KHG24239]
HEK293cell (% Inhibition) 10 μM [1]: 96.5 ± 1.3%
IC50 [1]: 610 ± 70 nM
FDSS (% inhibition)/10uM [2]: 69.55%

[2-(1-adamantyl)imino-3-methyl-1,3-thiazolidine-4-yl]-N-(4-chlorophenyl)-acetamide hydrochloride [KHG24238]
HEK293cell (% Inhibition) 10 μM [1]: 95.9 ± 1.8%
IC50 [1]: 530 ± 20 nM
FDSS (% inhibition)/10uM [2]: 73.31%

[2-(1-adamantyl)imino-3-methyl-1,3-thiazolidine-4-yl]-N-(4-ethylphenyl)-acetamide hydrochloride [KHG24236]
HEK293cell (% Inhibition) 10 μM [1]: 94.4 ± 0.6%
IC50 [1]: 230 ± 20 nM
FDSS (% inhibition)/10uM [2]: 69.55%

[2-(1-adamantyl)imino-3-methyl-1,3-thiazolidine-4-yl]-N-(4-fluorophenyl)-acetamide hydrochloride [KHG24237]
HEK293cell (% Inhibition) 10 μM [1]: 91.2 ± 3.1%
IC50 [1]: 770 ± 30 nM
FDSS (% inhibition)/10uM [2]: 74.81%

[2-(1-adamantyl)imino-3-methyl-1,3-thiazolidine-4-yl]-N-(4-isopropylphenyl)-acetamide hydrochloride [KHG24243]
HEK293cell (% Inhibition) 10 μM [1]: 97.0 ± 1.1%
IC50 [1]: 50 ± 10 nM
FDSS (% inhibition)/10uM [2]: 60.9%

[2-(1-adamantyl)imino-3-methyl-1,3-thiazolidine-4-yl]-N-(4-methylphenyl)-acetamide hydrochloride [KHG24235]
HEK293cell (% Inhibition) 10 μM [1]: 93.2 ± 1.9%
IC50 [1]: 1170 ± 80 nM
FDSS (% inhibition)/10uM [2]: 61.65%

[2-(1-adamantyl)imino-3-methyl-1,3-thiazolidine-4-yl]-N-(4-phenoxyphenyl)-acetamide hydrochloride [KHG24244]
HEK293cell (% Inhibition) 10 μM [1]: 90.6 ± 3.6%
IC50 [1]: 920 ± 80 nM
FDSS (% inhibition)/10uM [2]: 53.67%

[2-(1-adamantyl)imino-3-methyl-1,3-thiazolidine-4-yl]-N-(4-trifluoromethylphenyl)-acetamide hydrochloride [KHG24240]
HEK293cell (% Inhibition) 10 μM [1]: 96.2 ± 1.1%
IC50 [1]: 230 ± 20 nM
FDSS (% inhibition)/10uM [2]: 70.68%

[2-(1-adamantyl)imino-3-methyl-1,3-thiazolidine-4-yl]-N-(5-chloro-2-fluorophenyl)-acetamide hydrochloride [KHG24242]
HEK293cell (% Inhibition) 10 μM [1]: 85.2 ± 1.3%
IC50 [1]: 970 ± 140 nM
FDSS (% inhibition)/10uM [2]: 53.38%

[2-(1-adamantylimino)-3-cyclopropyl-1,3-thiazolidine-4-yl]-N-(4-isopropylphenyl)-acetamide hydrochloride [KHG24788]
HEK293cell (% Inhibition) 10 μM [1]: 95.3 ± 0.4%
IC50 [1]: 310 ± 20 nM
FDSS (% inhibition)/10uM [2]: 72.88%

[2-(1-adamantylimino)-3-cyclopropyl-1,3-thiazolidine-4-yl]-N-(4-n-butylphenyl)-acetamide hydrochloride [KHG24789]
HEK293cell (% Inhibition) 10 μM [1]: 95.1 ± 0.7%
IC50 [1]: 190 ± 20 nM
FDSS (% inhibition)/10uM [2]: 78.21%

[2-(1-adamantylimino)-3-cyclopropyl-1,3-thiazolidine-4-yl]-N-(4-phenoxyphenyl)-acetamide hydrochloride [KHG24800]
HEK293cell (% Inhibition) 10 μM [1]: 95.4 ± 0.5%
IC50 [1]: 430 ± 70 nM
FDSS (% inhibition)/10uM [2]: 83.5%

[2-(1-adamantylimino)-3-cyclopropyl-1,3-thiazolidine-4-yl]-N-(4-trifluoromethylphenyl)-acetamide hydrochloride [KHG24790]
HEK293cell (% Inhibition) 10 μM [1]: 94.8 ± 0.9%
IC50 [1]: 240 ± 10 nM
FDSS (% inhibition)/10uM [2]: 73.05%

[2-(1-adamantylimino)-3-ethyl-1,3-thiazolidine-4-yl]-N-(4-ethylphenyl)-acetamide hydrochloride [KHG24847]
HEK293cell (% Inhibition) 10 μM [1]: 95.5 ± 2.7%
IC50 [1]: 350 ± 10 nM
FDSS (% inhibition)/10uM [2]: 72.23%

[2-(1-adamantylimino)-3-ethyl-1,3-thiazolidine-4-yl]-N-(4-trifluoromethylphenyl)-acetamide hydrochloride [KHG24821]
HEK293cell (% Inhibition) 10 μM [1]: 92.3 ± 1.8%
IC50 [1]: 360 ± 20 nM
FDSS (% inhibition)/10uM [2]: 73.69%
